Tests used:
human TLR8 = human TLR8 (Homo sapiens (Human), UniProt Q9NR97); experiment: HEK-Blue human TLR8 cells, NF-κB SEAP reporter assay; type: cell-based; conditions: stimulation for 20 hours
Excerpt: (§1) For TLR8 and TLR7 activity testing, HEK-Blue human TLR8 or TLR7 cells (Invivogen, San Diego, Calif., USA) are used, respectively. These cells are designed for studying the stimulation of human TLR8 or TLR7 by monitoring the activation of NF-κB. A SEAP (secreted embryonic alkaline phosphatase) reporter gene is placed under the control of the IFN-b minimal promoter fused to five NF-κB and AP-1-binding sites. Therefore the reporter expression is regulated by the NF-κB promoter upon stimulation of human TLR8 or TLR7 for 20 hours. The cell culture supernatant SEAP reporter activity was determined using Quanti Blue kit (Invivogen, San Diego, Ca, USA) at a wavelength of 640 nm, a detection medium that turns purple/blue in the presence of alkaline phosphatase. EC50 values were determined using Activity Base analysis (ID Business Solution, Limited).

human TLR7 = human TLR7 (Homo sapiens (Human), UniProt Q9NYK1); experiment: HEK-Blue human TLR7 cells, NF-κB SEAP reporter assay; type: cell-based; conditions: stimulation for 20 hours
human TLR7, sequence (Q9NYK1 27-1049): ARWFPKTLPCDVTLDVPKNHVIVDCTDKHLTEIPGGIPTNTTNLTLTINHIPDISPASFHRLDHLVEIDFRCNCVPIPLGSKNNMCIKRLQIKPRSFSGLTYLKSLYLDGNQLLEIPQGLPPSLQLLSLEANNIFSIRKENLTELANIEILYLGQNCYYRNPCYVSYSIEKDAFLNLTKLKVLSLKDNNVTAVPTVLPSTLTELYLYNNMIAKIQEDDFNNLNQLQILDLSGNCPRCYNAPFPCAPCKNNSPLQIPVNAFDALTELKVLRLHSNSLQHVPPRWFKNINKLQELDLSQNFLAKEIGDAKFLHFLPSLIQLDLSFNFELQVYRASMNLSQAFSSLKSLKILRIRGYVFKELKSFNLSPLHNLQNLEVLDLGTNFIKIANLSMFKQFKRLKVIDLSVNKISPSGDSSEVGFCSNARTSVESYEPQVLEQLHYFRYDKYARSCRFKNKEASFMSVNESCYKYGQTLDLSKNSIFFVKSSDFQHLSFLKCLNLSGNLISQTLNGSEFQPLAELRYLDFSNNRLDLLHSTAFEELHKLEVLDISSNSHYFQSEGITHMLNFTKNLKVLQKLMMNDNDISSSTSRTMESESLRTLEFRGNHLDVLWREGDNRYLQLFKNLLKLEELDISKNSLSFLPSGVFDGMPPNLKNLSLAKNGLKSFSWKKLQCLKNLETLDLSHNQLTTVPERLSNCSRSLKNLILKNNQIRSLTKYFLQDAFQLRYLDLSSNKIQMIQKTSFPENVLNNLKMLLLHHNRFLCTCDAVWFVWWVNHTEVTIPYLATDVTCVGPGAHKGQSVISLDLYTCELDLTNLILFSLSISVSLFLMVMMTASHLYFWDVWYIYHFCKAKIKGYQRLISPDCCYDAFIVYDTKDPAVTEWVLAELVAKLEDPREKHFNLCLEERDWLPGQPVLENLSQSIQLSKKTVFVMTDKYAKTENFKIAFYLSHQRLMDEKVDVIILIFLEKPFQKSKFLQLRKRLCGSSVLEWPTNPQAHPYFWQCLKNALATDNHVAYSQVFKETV
Excerpt: as §1

human TLR8, sequence (Q9NR97 27-1041): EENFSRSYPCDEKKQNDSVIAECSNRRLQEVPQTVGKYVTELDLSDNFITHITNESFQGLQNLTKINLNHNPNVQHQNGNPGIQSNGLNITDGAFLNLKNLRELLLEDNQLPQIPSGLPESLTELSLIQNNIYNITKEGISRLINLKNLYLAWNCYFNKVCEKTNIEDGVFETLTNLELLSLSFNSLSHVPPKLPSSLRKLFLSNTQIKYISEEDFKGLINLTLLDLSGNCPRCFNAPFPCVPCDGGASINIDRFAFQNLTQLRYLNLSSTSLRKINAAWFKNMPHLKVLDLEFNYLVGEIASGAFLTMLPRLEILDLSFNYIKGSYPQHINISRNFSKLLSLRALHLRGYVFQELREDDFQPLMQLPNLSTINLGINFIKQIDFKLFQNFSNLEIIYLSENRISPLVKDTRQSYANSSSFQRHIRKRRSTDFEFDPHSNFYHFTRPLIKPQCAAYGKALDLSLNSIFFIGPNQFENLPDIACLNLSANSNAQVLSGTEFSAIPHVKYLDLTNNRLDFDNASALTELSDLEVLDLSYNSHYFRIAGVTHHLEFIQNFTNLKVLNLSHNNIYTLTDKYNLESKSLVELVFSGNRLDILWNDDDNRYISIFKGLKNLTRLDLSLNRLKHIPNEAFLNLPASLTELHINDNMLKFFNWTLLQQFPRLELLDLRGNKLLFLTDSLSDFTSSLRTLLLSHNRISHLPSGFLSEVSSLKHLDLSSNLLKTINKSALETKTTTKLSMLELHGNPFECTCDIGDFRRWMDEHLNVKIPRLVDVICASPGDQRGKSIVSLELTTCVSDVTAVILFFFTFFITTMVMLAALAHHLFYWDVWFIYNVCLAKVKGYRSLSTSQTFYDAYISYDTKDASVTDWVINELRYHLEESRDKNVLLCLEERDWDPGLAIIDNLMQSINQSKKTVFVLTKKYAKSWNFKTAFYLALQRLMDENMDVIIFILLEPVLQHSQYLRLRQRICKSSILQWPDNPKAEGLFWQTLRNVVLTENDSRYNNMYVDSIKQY

| EC50 (human TLR8) [nM] | EC50 (human TLR7) [nM] | SMILES |
| --- | --- | --- |
| 6 | > 100000 | CCCN(CCC)C(=O)C1=Cc2ccc(C(=O)Nc3cncc(/C=C\CN)c3)cc2N=C(N)C1 [Example 52, 2-Amino-N8-[5-[(Z)-3-aminoprop-1-enyl]-3-pyridyl]-N4,N4-dipropyl-3H-1-benzazepine-4,8-dicarboxamide] |
| 1 | > 100000 | CCCN(CCC)C(=O)C1=Cc2ccc(C(=O)Nc3cccc(C)c3)cc2N=C(N)C1 [Example 14, 2-Amino-N8-(m-tolyl)-N4,N4-dipropyl-3H-1-benzazepine-4,8-dicarboxamide] |
| 27 | > 100000 | CCCN(CCC)C(=O)C1=Cc2ccc(C(=O)Nc3cncc(CCCCCCN)c3)cc2N=C(N)C1 [Example 74, 2-Amino-N8-[5-(6-aminohexyl)-3-pyridyl]-N4,N4-dipropyl-3H-1-benzazepine-4,8-dicarboxamide] |
| 2 | > 100000 | CCCN(CCC)C(=O)C1=Cc2ccc(C(=O)Nc3cccc(Cl)c3)cc2N=C(N)C1 [Example 32, 2-Amino-N8-(3-chlorophenyl)-N4,N4-dipropyl-3H-1-benzazepine-4,8-dicarboxamide] |
| 31 | > 100000 | CCCN(CCC)C(=O)C1=Cc2ccc(C(=O)Nc3cccc(CN)c3)cc2N=C(N)C1 [Example 36, 2-Amino-N8-[3-(aminomethyl)phenyl]-N4,N4-dipropyl-3H-1-benzazepine-4,8-dicarboxamide] |
| 8 | > 100000 | CCCN(CCC)C(=O)C1=Cc2ccc(C(=O)Nc3cncc(CCc4ccccc4)c3)cc2N=C(N)C1 [Example 69, 2-Amino-N8-[5-(2-phenylethyl)-3-pyridyl]-N4,N4-dipropyl-3H-1-benzazepine-4,8-dicarboxamide] |
| 1 | 80800 | CCCN(CCC)C(=O)C1=Cc2ccc(C(=O)Nc3cccnc3)cc2N=C(N)C1 [Example 1, 2-Amino-N4,N4-dipropyl-N8-(3-pyridyl)-3H-1-benzazepine-4,8-dicarboxamide] |
| 1 | > 100000 | CCCN(CCC)C(=O)C1=Cc2ccc(C(=O)Nc3cncc(OC)c3)cc2N=C(N)C1 [Example 40, 2-Amino-N8-(5-methoxy-3-pyridyl)-N4,N4-dipropyl-3H-1-benzazepine-4,8-dicarboxamide] |
| 10 | > 100000 | CCCN(CCC)C(=O)C1=Cc2ccc(C(=O)Nc3cncc(CCCN)c3)cc2N=C(N)C1 [Example 50, 2-Amino-N8-[5-(3-aminopropyl)-3-pyridyl]-N4,N4-dipropyl-3H-1-benzazepine-4,8-dicarboxamide] |
| 2 | 34000 | CCCN(CCC)C(=O)C1=Cc2ccc(C(=O)Nc3cncc(C)c3)cc2N=C(N)C1 [Example 18, 2-Amino-N8-(5-methyl-3-pyridyl)-N4,N4-dipropyl-3H-1-benzazepine-4,8-dicarboxamide] |
| 7 | > 100000 | CCCN(CCC)C(=O)C1=Cc2ccc(C(=O)Nc3cccc(CCCCN)c3)cc2N=C(N)C1 [Example 62] |
| 12 | > 100000 | CCCN(CCC)C(=O)C1=Cc2ccc(C(=O)Nc3cncc(CCc4ccc(OC)cc4)c3)cc2N=C(N)C1 [Example 70, 2-Amino-N8-[5-[2-(4-methoxyphenyl)ethyl]-3-pyridyl]-N4,N4-dipropyl-3H-1-benzazepine-4,8-dicarboxamide] |
| 1 | 12000 | CCCN(CCC)C(=O)C1=Cc2ccc(C(=O)Nc3cncc(OCC)c3)cc2N=C(N)C1 [Example 44, 2-Amino-N8-(5-ethoxy-3-pyridyl)-N4,N4-dipropyl-3H-1-benzazepine-4,8-dicarboxamide] |
| 16 | > 100000 | CCCN(CCC)C(=O)C1=Cc2ccc(C(=O)Nc3cncc(C#CCN)c3)cc2N=C(N)C1 [Example 48, 2-Amino-N8-[5-(3-aminoprop-1-ynyl)-3-pyridyl]-N4,N4-dipropyl-3H-1-benzazepine-4,8-dicarboxamide] |
| 25 | > 100000 | CCCN(CCC)C(=O)C1=Cc2ccc(C(=O)Nc3cncc(CCCCCN)c3)cc2N=C(N)C1 [Example 72, 2-Amino-N8-[5-(5-aminopentyl)-3-pyridyl]-N4,N4-dipropyl-3H-1-benzazepine-4,8-dicarboxamide] |
| 3 | > 100000 | CCCN(CCC)C(=O)C1=Cc2ccc(C(=O)Nc3cccc(CCN)c3)cc2N=C(N)C1 [Example 54, 2-Amino-N8-[3-(2-aminoethyl)phenyl]-N4,N4-dipropyl-3H-1-benzazepine-4,8-dicarboxamide] |
| 3 | 46000 | CCCN(CCC)C(=O)C1=Cc2ccc(C(=O)Nc3cncc(F)c3)cc2N=C(N)C1 [Example 20, 2-Amino-N8-(5-fluoro-3-pyridyl)-N4,N4-dipropyl-3H-1-benzazepine-4,8-dicarboxamide] |
| 8 | > 100000 | CCCN(CCC)C(=O)C1=Cc2ccc(C(=O)Nc3cncc(CO)c3)cc2N=C(N)C1 [Example 6, 2-Amino-N8-[5-(hydroxymethyl)-3-pyridyl]-N4,N4-dipropyl-3H-1-benzazepine-4,8-dicarboxamide] |
| 25 | > 100000 | CCCN(CCC)C(=O)C1=Cc2ccc(C(=O)Nc3cccc(CCCCCN)c3)cc2N=C(N)C1 [Example 57, 2-Amino-N8-[3-(5-aminopentyl)phenyl]-N4,N4-dipropyl-3H-1-benzazepine-4,8-dicarboxamide] |

Continued, compound first:

| SMILES | EC50 (human TLR8) [nM] | EC50 (human TLR7) [nM] |
| --- | --- | --- |
| CCCN(CCC)C(=O)C1=Cc2ccc(C(=O)Nc3cncc(OCCCCCN)c3)cc2N=C(N)C1 [Example 46, 2-Amino-N8-[5-(5-aminopentoxy)-3-pyridyl]-N4,N4-dipropyl-3H-1-benzazepine-4,8-dicarboxamide] | 10 | > 100000 |
| CCCN(CCC)C(=O)C1=Cc2ccc(C(=O)Nc3cccc(S(C)(=O)=O)c3)cc2N=C(N)C1 [Example 8, 2-Amino-N8-(3-methylsulfonylphenyl)-N4,N4-dipropyl-3H-1-benzazepine-4,8-dicarboxamide] | 10 | 44000 |
| CCCN(CCC)C(=O)C1=Cc2ccc(C(=O)Nc3cc(Cl)cc(CCN)c3)cc2N=C(N)C1 [Example 64, 2-Amino-N8-[3-(2-aminoethyl)-5-chloro-phenyl]-N4,N4-dipropyl-3H-1-benzazepine-4,8-dicarboxamide] | 29 | > 100000 |
| CCCN(CCC)C(=O)C1=Cc2ccc(C(=O)Nc3ccc(CO)nc3)cc2N=C(N)C1 [Example 7, 2-Amino-N8-[6-(hydroxymethyl)-3-pyridyl]-N4,N4-dipropyl-3H-1-benzazepine-4,8-dicarboxamide] | 15 | > 100000 |
| CCCN(CCC)C(=O)C1=Cc2ccc(C(=O)Nc3ccc(CN)nc3)cc2N=C(N)C1 [Example 5, 2-Amino-N8-[6-(aminomethyl)-3-pyridyl]-N4,N4-dipropyl-3H-1-benzazepine-4,8-dicarboxamide] | 3 | > 100000 |
| CCCN(CCC)C(=O)C1=Cc2ccc(C(=O)Nc3ccc(CCCN)cc3)cc2N=C(N)C1 [Example 61, 2-Amino-N8-[4-(3-aminopropyl)phenyl]-N4,N4-dipropyl-3H-1-benzazepine-4,8-dicarboxamide] | 5 | > 100000 |
| CCCN(CC(C)C)C(=O)C1=Cc2ccc(C(=O)Nc3cccc(C)c3)cc2N=C(N)C1 [Example 55, 2-Amino-N4-isobutyl-N8-(m-tolyl)-N4-propyl-3H-1-benzazepine-4,8-dicarboxamide] | 2 | > 100000 |
| CCCN(CCC)C(=O)C1=Cc2ccc(C(=O)Nc3ccc(CCCCN)nc3)cc2N=C(N)C1 [Example 77, 2-Amino-N8-[6-(4-aminobutyl)-3-pyridyl]-N4,N4-dipropyl-3H-1-benzazepine-4,8-dicarboxamide] | 8 | > 100000 |
| CCCN(CCC)C(=O)C1=Cc2ccc(C(=O)Nc3ccnnc3)cc2N=C(N)C1 [Example 34, 2-Amino-N4,N4-dipropyl-N8-pyridazin-4-yl-3H-1-benzazepine-4,8-dicarboxamide] | 2 | > 100000 |
| CCCN(CCCOCCCN)C(=O)C1=Cc2ccc(C(=O)Nc3cccc(C)c3)cc2N=C(N)C1 [Example 56, 2-Amino-N4-[3-(3-aminopropoxy)propyl]-N8-(m-tolyl)-N4-propyl-3H-1-benzazepine-4,8-dicarboxamide] | 10 | > 100000 |
| C#CCN(CCC)C(=O)C1=Cc2ccc(C(=O)Nc3cccc(C)c3)cc2N=C(N)C1 [Example 41, 2-Amino-N8-(m-tolyl)-N4-propyl-N4-prop-2-ynyl-3H-1-benzazepine-4,8-dicarboxamide] | 6 | > 100000 |
| CCCN(CCCO)C(=O)C1=Cc2ccc(C(=O)Nc3cccc(C)c3)cc2N=C(N)C1 [Example 26, 2-Amino-N4-(3-hydroxypropyl)-N8-(m-tolyl)-N4-propyl-3H-1-benzazepine-4,8-dicarboxamide] | 2 | > 100000 |
| CCCN(CCC)C(=O)C1=Cc2ccc(C(=O)Nc3ccc(CN)cc3)cc2N=C(N)C1 [Example 24, 2-Amino-N8-[4-(aminomethyl)phenyl]-N4,N4-dipropyl-3H-1-benzazepine-4,8-dicarboxamide] | 9 | > 100000 |
| CCCCN(CCCC)C(=O)C1=Cc2ccc(C(=O)Nc3cccc(C)c3)cc2N=C(N)C1 [Example 42, 2-Amino-N4,N4-dibutyl-N8-(m-tolyl)-3H-1-benzazepine-4,8-dicarboxamide] | 17 | > 100000 |
| CCCN(CCC)C(=O)C1=Cc2ccc(C(=O)Nc3cncs3)cc2N=C(N)C1 [Example 9, 2-Amino-N4,N4-dipropyl-N8-thiazol-5-yl-3H-1-benzazepine-4,8-dicarboxamide] | 3 | > 100000 |

Reference: patent publication US9475775B2, “Benzazepine dicarboxamide compounds” (Hoffmann-La Roche Inc., priority 2015, dated 2016)
